{"source": "patent US20080194530A1", "about": "“Chemical Compounds” (Phytopharm PLC, priority 2004, published 2008)", "key": {"[1]": {"test": "Desolvation / dehydration of crystalline forms on drying or heating", "assay_type": "physicochemical", "details": "for temperature of heating/drying at which the form is converted to non-solvated non-hydrated form B: desolvation or dehydration to form B"}, "[2]": {"test": "Solid-state stability of crystalline forms on exposure to humidity", "assay_type": "physicochemical"}}}
{"compound": "CC1CCC2(OC1)O[C@H]1CC3C4CC[C@@H]5C[C@@H](O)CC[C@]5(C)C4CC[C@]3(C)C1[C@@H]2C", "note": "(stereo partly drawn) [form D, sarsasapogenin]", "values": [{"measurement": "solvate stoichiometry on filtration and drying", "setting": "[1]", "value": "variable stoichiometry"}]}
{"compound": "C[C@H]1CC[C@@]2(OC1)O[C@H]1C[C@H]3[C@@H]4CC[C@@H]5C[C@@H](O)CC[C@]5(C)[C@H]4CC[C@]3(C)[C@H]1[C@@H]2C", "note": "[form C, sarsasapogenin]", "values": [{"measurement": "temperature of heating/drying at which the form is converted to non-solvated non-hydrated form B", "setting": "[1]", "value": "40-60 °C"}]}
{"compound": "C[C@H]1CC[C@@]2(OC1)O[C@H]1C[C@H]3[C@@H]4CC[C@@H]5C[C@@H](O)CC[C@]5(C)[C@H]4CC[C@]3(C)[C@H]1[C@@H]2C", "note": "[form A, sarsasapogenin]", "values": [{"measurement": "stability with respect to further drying", "setting": "[1]; after filtration and initial drying", "value": "reasonable stability"}, {"measurement": "temperature of heating/drying at which the form is converted to non-solvated non-hydrated form B", "setting": "[1]; listed as hemi acetone solvate", "value": "80-100 °C"}, {"measurement": "form change on exposure to humidity", "setting": "[2]; humidity of 50% or greater", "value": "led to the formation of form C"}]}
{"compound": "C[C@H]1CC[C@@]2(OC1)O[C@H]1C[C@H]3[C@@H]4CC[C@@H]5C[C@@H](O)CC[C@]5(C)[C@H]4CC[C@]3(C)[C@H]1[C@@H]2C", "note": "[form H, sarsasapogenin]", "values": [{"measurement": "form change on storage", "setting": "[2]; 40° C. and 75% relative humidity for 18 days", "value": "furnish form I"}]}
